Experimental data reported in article PMC10807816, “Molecular mechanisms and evolutionary robustness of a color switch in proteorhodopsins” (Science Advances, 2024).

Molecular target: T1, GPR (green proteorhodopsin) (uncultured marine gamma proteobacterium EBAC31A08, UniProt Q9F7P4, L105Q)
T1 construct: pET27b(+) NdeI/XhoI, C-terminal HSV tag and His6 tag kept; E. coli C43; Ni-NTA, DDM, DMPC/DMPA liposomes
Test: solid-state NMR (DNP, CSA, 2D […]/1H/[…]) and UV-Vis
Assay type: binding
Details: covalent; protonated Schiff base to Lys231; pH 9.0; labelled compound; called BPR

T1 sequence (Q9F7P4 18-249 L105Q): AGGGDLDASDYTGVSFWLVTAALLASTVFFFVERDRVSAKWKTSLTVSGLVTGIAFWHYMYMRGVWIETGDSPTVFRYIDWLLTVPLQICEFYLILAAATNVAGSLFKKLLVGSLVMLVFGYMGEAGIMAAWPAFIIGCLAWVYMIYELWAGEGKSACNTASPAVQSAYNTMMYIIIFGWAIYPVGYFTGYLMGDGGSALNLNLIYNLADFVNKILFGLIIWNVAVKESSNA

`CC1=C(/C=C/C(C)=C/C=C/C(C)=C/C=O)C(C)(C)CCC1` [all-trans retinal] was tested, and the “solid-state NMR (DNP, CSA, 2D 13C/1H/15N) and UV-Vis” value was “Notable chemical shift changes between GPR and BPR have been observed”.
